Test results taken from US9981909B2 (Janssen Pharmaceutica NV, priority 2008, dated 2018).
Where two headings read alike, the source gives them in different places.

Legend:
[1] = target: rat 5-HT7 receptor (Rattus norvegicus (Rat), UniProt P32305); assay: r5-HT7 binding assay, competitive radioligand binding with [3H]5-CT
Method in brief: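 For h5-HT6, stably transfected HEK-293 membranes were exposed to 1.7 nM [3H]LSD plus increasing compound for 60 min at room temperature, with 10 μM clozapine for nonspecific binding. The r5-HT7 assay used [3H]5-CT competition on recombinant HEK-293 membranes, Ki derived from radioactivity counts.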

[2] = target: h5-HT6 (Homo sapiens (Human), UniProt P50406); assay: h5-HT6 binding assay with [3H]LSD on HEK-293 membranes; details: h5-HT6, [3H]LSD, HEK-293 membranes; read-out: h5HT6 binding Ki
Procedure: Receptor binding was performed using membrane fractions prepared from the HEK-293 cell line recombinantly expressing rat 5-HT7 receptors (NCBI accession NM_022938). Compound affinity for the rat 5-HT7 receptor subtype was evaluated by competitive radioligand binding assays using 5-carboxamido[^3H]tryptamine ([^3H]5-CT) (Amersham Biosciences, cat. 90000403) detection. HitHunter™ cAMP assays are in-vitro based competitive immunoassays. The assay was performed on the HEK-293 cell line stably transfected with r5-HT7 receptor. Cells were pre-incubated with test compounds for 10 minutes. For antagonist testing, the cells were then challenged with 100 nM 5-CT for 20 minutes. Cells were then lysed and cAMP measured according to manufacturers protocol (Amersham, cat. NET791250UC) or [^3H]mesulergine (Amersham, cat. TRK1041). The assay was performed on membranes prepared from HEK-293 cells stably transfected with h5-HT6. Following centrifugation, membranes were resuspended and incubated for 60 min at room temperature with 1.7 nM [^3H]LSD in the presence of increasing concentration of test compounds. Nonspecific binding was defined in the presence of 10 μM clozapine (Tocris, cat. TRK1068). Homogenized HEK-293 membranes expressing the human SERT were incubated in 50 mM Tris-HCl (pH 7.5), 120 mM NaCl, 5 mM KCl with [^3H]-citalopram (3 nM) with or without test compounds. Nonspecific binding was determined in the presence of 10 μM fluoxetine. Radioactivity readouts and Ki values were performed as previously described for r5-HT7. […] Compounds were assayed in their free form or as salts, as indicated in the Examples section above.

[3] = target: human SERT (Homo sapiens (Human), UniProt P31645); assay: human SERT binding assay with [3H]-citalopram on HEK-293 membranes; details: read-out: hSERT binding Ki
[4] = target: T1, h5HT2A (Homo sapiens (Human), UniProt P28223); assay: h5HT2A binding
[5] = target: T2, h5HT2B (Homo sapiens (Human), UniProt P41595); assay: h5HT2B binding
[6] = target: T3, h5HT2C (Homo sapiens (Human), UniProt P28335); assay: h5HT2C binding
[7] = target: T3, h5HT2C; assay: h5HT2C binding; remark: listed apart in the source
[8] = target: r5-HT7 receptor (Rattus norvegicus (Rat), UniProt P32305); assay: HitHunter cAMP assay, antagonist testing against 100 nM 5-CT; format: cell-based; details: antagonist testing, 100 nM 5-CT challenge, HEK-293 r5-HT7; read-out: R5HT7 cAMP pKb (converted)
Method in brief: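 Rat 5-HT7 binding: HEK-293 membrane fractions, [3H]5-CT displacement, radioactivity counted, Ki reported. Antagonist mode: intact r5-HT7 HEK-293 cells, test compound 10 min, then 5-CT 100 nM for 20 min, lysis, cAMP by competitive immunoassay.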

[9] = target: T1, h5HT2A; assay: h5HT2A binding; remark: listed apart in the source
[10] = target: T2, h5HT2B; assay: h5HT2B binding; remark: listed apart in the source
[11] = rat 5-HT7 receptor, HEK-293 membranes

Sequence of h5-HT6 (P50406 whole entry): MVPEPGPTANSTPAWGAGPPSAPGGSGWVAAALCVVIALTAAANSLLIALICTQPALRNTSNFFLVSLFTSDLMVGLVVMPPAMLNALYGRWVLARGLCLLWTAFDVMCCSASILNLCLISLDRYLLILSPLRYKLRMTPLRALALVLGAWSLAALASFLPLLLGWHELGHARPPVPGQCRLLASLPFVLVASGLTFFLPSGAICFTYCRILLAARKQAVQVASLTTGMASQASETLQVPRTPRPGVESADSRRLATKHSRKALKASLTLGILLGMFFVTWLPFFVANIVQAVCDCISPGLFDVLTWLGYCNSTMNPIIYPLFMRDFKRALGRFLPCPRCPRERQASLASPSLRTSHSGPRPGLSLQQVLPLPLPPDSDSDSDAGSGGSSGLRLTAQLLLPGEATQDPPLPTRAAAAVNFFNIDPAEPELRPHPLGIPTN
Sequence of human SERT (P31645 whole entry): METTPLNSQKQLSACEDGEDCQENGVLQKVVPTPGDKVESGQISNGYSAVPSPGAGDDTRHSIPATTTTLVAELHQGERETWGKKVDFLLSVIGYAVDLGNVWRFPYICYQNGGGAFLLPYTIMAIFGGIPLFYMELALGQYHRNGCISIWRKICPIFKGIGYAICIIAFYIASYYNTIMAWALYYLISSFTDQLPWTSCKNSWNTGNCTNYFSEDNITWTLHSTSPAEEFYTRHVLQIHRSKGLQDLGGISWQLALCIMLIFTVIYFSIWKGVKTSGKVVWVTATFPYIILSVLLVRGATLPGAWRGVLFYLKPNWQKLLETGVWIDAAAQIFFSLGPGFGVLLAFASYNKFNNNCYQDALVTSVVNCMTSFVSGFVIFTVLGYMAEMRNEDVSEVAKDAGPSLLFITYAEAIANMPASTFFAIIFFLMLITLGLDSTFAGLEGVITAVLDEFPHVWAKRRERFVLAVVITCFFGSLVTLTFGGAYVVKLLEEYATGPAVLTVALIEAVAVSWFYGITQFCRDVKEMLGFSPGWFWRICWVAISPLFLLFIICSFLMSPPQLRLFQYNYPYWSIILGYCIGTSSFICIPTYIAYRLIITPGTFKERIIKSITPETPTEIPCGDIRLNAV
T3 sequence (P28335 33-458): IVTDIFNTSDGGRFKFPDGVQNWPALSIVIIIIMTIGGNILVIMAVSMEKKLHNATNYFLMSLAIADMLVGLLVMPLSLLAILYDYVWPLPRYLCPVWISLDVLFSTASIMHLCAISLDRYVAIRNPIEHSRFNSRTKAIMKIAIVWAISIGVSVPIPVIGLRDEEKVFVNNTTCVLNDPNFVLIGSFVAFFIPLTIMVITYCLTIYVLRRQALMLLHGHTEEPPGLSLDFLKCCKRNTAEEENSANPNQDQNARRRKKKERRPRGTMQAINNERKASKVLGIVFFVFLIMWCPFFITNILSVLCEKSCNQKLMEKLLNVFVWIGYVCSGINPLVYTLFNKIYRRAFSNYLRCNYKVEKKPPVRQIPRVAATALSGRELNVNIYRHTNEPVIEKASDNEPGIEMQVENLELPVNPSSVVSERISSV
T1 sequence (P28223 whole entry): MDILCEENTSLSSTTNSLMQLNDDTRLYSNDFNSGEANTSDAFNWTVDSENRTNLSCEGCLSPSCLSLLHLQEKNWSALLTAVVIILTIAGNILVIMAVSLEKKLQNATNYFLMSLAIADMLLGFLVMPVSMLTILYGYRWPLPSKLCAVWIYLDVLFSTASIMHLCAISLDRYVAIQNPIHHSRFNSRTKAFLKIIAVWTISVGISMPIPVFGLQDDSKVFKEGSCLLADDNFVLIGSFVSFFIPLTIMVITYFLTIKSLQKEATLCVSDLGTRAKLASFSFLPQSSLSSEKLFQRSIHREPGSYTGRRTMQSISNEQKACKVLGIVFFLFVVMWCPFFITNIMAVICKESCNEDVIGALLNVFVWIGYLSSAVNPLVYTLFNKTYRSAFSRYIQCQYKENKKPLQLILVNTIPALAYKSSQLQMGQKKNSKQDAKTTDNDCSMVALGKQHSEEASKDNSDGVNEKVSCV
T2 sequence (P41595 whole entry): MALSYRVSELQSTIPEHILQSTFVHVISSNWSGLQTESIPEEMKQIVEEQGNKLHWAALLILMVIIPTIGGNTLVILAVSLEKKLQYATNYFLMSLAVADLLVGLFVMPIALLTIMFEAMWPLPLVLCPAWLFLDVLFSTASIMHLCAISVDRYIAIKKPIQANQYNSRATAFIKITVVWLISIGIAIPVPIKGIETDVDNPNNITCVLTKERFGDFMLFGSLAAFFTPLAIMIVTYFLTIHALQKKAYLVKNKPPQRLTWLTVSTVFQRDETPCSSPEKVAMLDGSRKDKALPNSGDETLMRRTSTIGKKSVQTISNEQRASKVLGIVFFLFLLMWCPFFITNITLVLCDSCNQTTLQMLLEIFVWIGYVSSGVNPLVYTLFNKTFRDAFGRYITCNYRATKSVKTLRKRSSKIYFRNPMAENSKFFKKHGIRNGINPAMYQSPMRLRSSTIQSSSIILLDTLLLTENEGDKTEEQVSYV
Sequence of rat 5-HT7 receptor (P32305 1-435): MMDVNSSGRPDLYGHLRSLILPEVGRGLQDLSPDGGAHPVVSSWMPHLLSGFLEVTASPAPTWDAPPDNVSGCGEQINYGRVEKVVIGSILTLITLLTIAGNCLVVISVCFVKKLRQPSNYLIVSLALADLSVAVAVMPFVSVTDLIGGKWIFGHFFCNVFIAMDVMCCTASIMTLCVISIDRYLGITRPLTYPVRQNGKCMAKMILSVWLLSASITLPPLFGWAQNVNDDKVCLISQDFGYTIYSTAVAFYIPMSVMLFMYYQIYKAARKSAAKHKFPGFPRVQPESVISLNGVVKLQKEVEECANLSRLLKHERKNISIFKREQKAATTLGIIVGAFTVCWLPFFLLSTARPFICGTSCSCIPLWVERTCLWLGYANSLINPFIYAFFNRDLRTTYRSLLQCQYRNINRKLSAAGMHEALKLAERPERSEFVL
Sequence of r5-HT7 receptor (P32305 1-435): as above

Ki [3] [nM]	Ki ([1]; rat 5-HT7, HEK-293 membranes) [nM]	Ki [7] [nM]	Ki [9] [nM]	Ki [10] [nM]	SMILES	Ki [1, 11] [nM]	Ki [2] [nM]	Ki [4] [nM]	Ki [5] [nM]	Ki [6] [nM]	Kb [8] [nM]
96					C[C@@H](Oc1ccc(Cl)cc1OC1CCNCC1)c1cccc(C(F)(F)F)c1 [Example 135, (R)-4-[5-Chloro-2-[1-(3-trifluoromethyl-phenyl)-ethoxy]-phenoxy]-piperidine]	15	1280	140	27	755	
262					COc1ccc2c(c1)CC(Oc1ccc(Cl)cc1OC1CNC1)C2 (stereo not shown) [Example 177, 3-[5-Chloro-2-(5-methoxy-indan-2-yloxy)-phenoxy]-azetidine]	12	123	35	56	140	
29					Clc1cccc(CCOc2ccc(Cl)cc2OC2CNC2)c1 [Example 185, 3-[5-Chloro-2-[2-(3-chloro-phenyl)-ethoxy]-phenoxy]-azetidine]	6	177	8	7	91	
60					Brc1ccc(OCCc2ccccc2)c(OC2CNC2)c1 [Example 195, 3-(5-Bromo-2-phenethyloxy-phenoxy)-azetidine]	2	27	10	4	42	
44	11	26	6	17	CC1(Oc2cc(Br)ccc2OCCc2ccccc2)CNC1 [Example 215, 3-(5-Bromo-2-phenethyloxy-phenoxy)-3-methyl-azetidine]						
2110	18	1010			Clc1ccc(OC2CN(c3ccccc3)C2)c(OC2CNC2)c1 [Example 222, 3-[5-Chloro-2-(1-phenyl-azetidin-3-ol)-phenoxy]-azetidine]						
	> 10000	230	150	130	Cc1ccc(Oc2cc(Cl)ccc2O[C@H]2CCNC2)cc1 [Example 266, (S)-3-(4-Chloro-2-p-tolyloxy-phenoxy)-pyrrolidine]						
	2300	210	120	65	Cc1ccc(Oc2cc(Cl)ccc2O[C@@H]2CCNC2)cc1 [Example 267, (R)-3-(4-Chloro-2-p-tolyloxy-phenoxy)-pyrrolidine]						
	820	380	150	130	Cc1ccc(Oc2cc(Cl)ccc2O[C@@H]2CCN(C)C2)cc1 [Example 268, (R)-3-(4-Chloro-2-p-tolyloxy-phenoxy)-1-methyl-pyrrolidine]						
	> 10000	400	190	500	Fc1ccc(Oc2cc(Cl)ccc2O[C@H]2CCNC2)cc1 [Example 269, (S)-3-[4-Chloro-2-(4-fluoro-phenoxy)-phenoxy]-pyrrolidine]						
	1000	240	120	75	Fc1ccc(Oc2cc(Cl)ccc2O[C@@H]2CCNC2)cc1 [Example 270, (R)-3-[4-Chloro-2-(4-fluoro-phenoxy)-phenoxy]-pyrrolidine]						
	660	350	78	98	CN1CC[C@@H](Oc2ccc(Cl)cc2Oc2ccc(F)cc2)C1 [Example 271, (R)-3-[4-Chloro-2-(4-fluoro-phenoxy)-phenoxy]-1-methyl-pyrrolidine]						
	> 10000	330	220	310	Cc1ccccc1Oc1cc(Cl)ccc1O[C@H]1CCNC1 [Example 272, (S)-3-(4-Chloro-2-o-tolyloxy-phenoxy)-pyrrolidine]						
	> 5000	150	82	160	Cc1cccc(Oc2cc(Cl)ccc2O[C@H]2CCNC2)c1 [Example 273, (S)-3-(4-Chloro-2-m-tolyloxy-phenoxy)-pyrrolidine]						
	8600	230	100	170	Cc1cc(Oc2cc(Cl)ccc2O[C@H]2CCNC2)ccc1F [Example 274, (S)-3-[4-Chloro-2-(4-fluoro-3-methyl-phenoxy)-phenoxy]-pyrrolidine]						
	> 10000	220	530	910	Clc1ccc(Oc2cc(Cl)ccc2O[C@H]2CCNC2)cc1 [Example 275, (S)-3-[4-Chloro-2-(4-chloro-phenoxy)-phenoxy]-pyrrolidine]						
	> 10000	120	84	190	Clc1cccc(Oc2cc(Cl)ccc2O[C@H]2CCNC2)c1 [Example 276, (S)-3-[4-Chloro-2-(3-chloro-phenoxy)-phenoxy]-pyrrolidine]						
	5500	120	410	270	Clc1ccc(O[C@H]2CCNC2)c(Oc2ccc(Br)cc2)c1 [Example 277, (S)-3-[2-(4-Bromo-phenoxy)-4-chloro-phenoxy]-pyrrolidine]						
	> 10000	330	1400	1300	CC(C)c1ccc(Oc2cc(Cl)ccc2O[C@H]2CCNC2)cc1 [Example 278, (S)-3-[4-Chloro-2-(4-isopropyl-phenoxy)-phenoxy]-pyrrolidine]						

SMILES	Ki [3] [nM]	Ki ([1]; rat 5-HT7, HEK-293 membranes) [nM]	Ki [7] [nM]	Ki [9] [nM]	Ki [10] [nM]	Ki [1, 11] [nM]	Ki [2] [nM]	Ki [4] [nM]	Ki [5] [nM]	Ki [6] [nM]	Kb [8] [nM]
CC(Oc1ccc(Br)cc1OC1CNC1)c1cccc(Cl)c1 (racemic) [Example 111, (±)-3-[5-Bromo-2-[1-(3-chloro-phenyl)-ethoxy]-phenoxy]-azetidine]	118					10	268	73	69	331	
C[C@@H]1NC[C@H]1Oc1cc(Br)ccc1OCc1cccc(F)c1 (racemic) [Example 219, (±)-trans-3-[5-Bromo-2-(3-fluoro-benzyloxy)-phenoxy]-2-methyl-azetidine]	68	9	31								
CC(Oc1ccc(Cl)cc1OC1CNC1)c1cccc(C(F)(F)F)c1 (stereo in doubt) [Example 101, (S)-3-[5-Chloro-2-[1-(3-trifluoromethyl-phenyl)-ethoxy]-phenoxy]-azetidine]	152					5	746	317	203	933	
Clc1cccc(COc2ccc(Br)cc2OC2CNC2)c1 [Example 2, 3-[5-Bromo-2-(3-chloro-benzyloxy)-phenoxy]-azetidine]	1					12	47	42	74	760	31.6
Clc1ccc(OCCc2ccccc2)c(OC2CNC2)c1 [Example 186]	53					5	33	14	8	79	
